From US7238775B2, “Receptor(SSTR4)-selective somatostatin analogs” (The Salk Institute for Biological Studies, priority 2002, dated 2007) come the findings set out here.

In one assay the target is T1, hSSTR4 (Homo sapiens, UniProt P31391).
T1 construct: expressed in transfected cells; host or cells: CHO-K1 cells and CCL39 cells
As to the kind of experiment: Displacement of 125I-[Leu8,D-Trp22,Tyr25]SRIF-28 from cloned receptor, membrane pellet autoradiography. Format: binding. As to conditions: for IC50: inhibition of 125I-SRIF-28 radioligand binding, cloned human receptor. On the procedure:
(§1) In vitro Bioassay: The effects of the various somatostatin analogs are tested in vitro for their ability to bind to isolated cloned receptors expressed on CHO-K1 cells and CCL39 cells. CHO-K1 cells are grown in Ham's F-12 medium, and CCL39 cells are grown in Dulbecco's modified Eagle's medium/Ham's F-12(1:1) mix, supplemented with 10% fetal bovine serum, 100 U/ml penicillin and 100 μg/ml streptomycin, in humidified air containing 5% CO2 at 37° C.
(§2) Cells are washed twice with and scraped into ice-cold 0.05 M Tris-HCl (pH 7.4), collected by centrifugation, and homogenized using a rotor/stator/system in the same buffer. After centrifugation at 120 g for 5 min at 4° C., the supernatant is collected and centrifuged again at 48,000 g for 30 min at 4° C. The resulting pellet is resuspended in ice-cold Tris buffer, transferred into a microfuge tube, and centrifuged at 20,000 g for 15 min at 4° C. After withdrawal of the supernatant, the membrane pellet is stored at −80° C.
Receptor autoradiography is performed on 20 μm thick cryostat sections of the membrane pellets, mounted on microscope slides, and then stored at −20° C. […] Increasing concentrations of the unlabeled peptide are used ranging from 0.1-1000 nM. […] IC50 values are calculated after quantification of the data using a computer-assisted image processing system as known in this art.
(§3) The numbers in parentheses indicate the number of times the particular binding test was carried out.
(In a radioligand displacement assay an active substance lowers the binding of a labelled ligand.)

A further assay concerns the target T2, hSSTR1 (Homo sapiens, UniProt P30872).
T2 construct: expressed in transfected cells; host or cells: CHO-K1 cells and CCL39 cells
Described as above. As to conditions: inhibition of 125I-SRIF-28 radioligand binding, cloned human receptor. Format: binding. On the procedure:
as §1, §2
Receptor autoradiography is performed on 20 μm thick cryostat sections of the membrane pellets, mounted on microscope slides, and then stored at −20° C. […] […] […] IC50 values are calculated after quantification of the data using a computer-assisted image processing system as known in this art.
as §3

“And” between values parts separate entries of the source, which are not always exact repeats. Equal values may be shown once. Numbered stars: 1 amine (or outer) side, 2 acyl side, 3 side chain; on linkers, the order of the positions; unused ones are H or OH. Bridge positions count the residues as written; N and C are the ends. Square brackets hold non-standard residues; d marks the D form. Ends that are not written are not given here. Peptide text beside a SMILES is read from it. * marks the point of attachment. DOTA = O=C(O)CN1CCN(CC(=O)O)CCN(CC(=O)*)CCN(CC(=O)O)CC1; d2Nal(3S-Me) = C[C@@H](c1ccc2ccccc2c1)[C@@H](N)C(=O)O; Phe(4-NH2) = Nc1ccc(C[C@H](N)C(=O)O)cc1; X2 = NC(=O)N[C@@H](CS[*:2])C(=O)[*:1]; GABA = NCCCC(=O)O

T1 sequence (P31391 whole entry): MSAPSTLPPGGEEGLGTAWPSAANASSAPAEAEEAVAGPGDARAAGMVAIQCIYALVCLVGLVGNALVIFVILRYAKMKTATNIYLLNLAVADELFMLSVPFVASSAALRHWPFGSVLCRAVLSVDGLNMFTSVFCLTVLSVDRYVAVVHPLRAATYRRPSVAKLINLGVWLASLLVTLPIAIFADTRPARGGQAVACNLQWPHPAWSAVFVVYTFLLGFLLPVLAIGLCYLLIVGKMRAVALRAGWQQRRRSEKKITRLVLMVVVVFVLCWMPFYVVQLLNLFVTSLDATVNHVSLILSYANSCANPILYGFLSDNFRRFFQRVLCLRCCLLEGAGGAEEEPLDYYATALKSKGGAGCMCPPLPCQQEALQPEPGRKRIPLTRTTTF
T2 sequence (P30872 whole entry): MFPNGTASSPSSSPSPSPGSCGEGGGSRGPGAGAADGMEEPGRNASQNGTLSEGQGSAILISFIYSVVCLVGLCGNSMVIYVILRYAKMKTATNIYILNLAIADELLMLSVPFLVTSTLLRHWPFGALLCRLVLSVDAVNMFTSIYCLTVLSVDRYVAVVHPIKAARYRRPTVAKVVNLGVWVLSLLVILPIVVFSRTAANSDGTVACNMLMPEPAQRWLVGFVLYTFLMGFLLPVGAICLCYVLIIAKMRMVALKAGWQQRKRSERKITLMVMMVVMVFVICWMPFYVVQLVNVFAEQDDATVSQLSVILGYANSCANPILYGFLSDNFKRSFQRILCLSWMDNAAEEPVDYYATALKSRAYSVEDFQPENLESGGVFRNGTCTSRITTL

With `C[C@@H]1NC(=O)[C@H](Cc2ccccc2)NC(=O)[C@@H](NC(=O)CN2CCN(CC(=O)O)CCN(CC(=O)O)CCN(CC(=O)O)CC2)CSSC[C@@H](C(=O)O)NC(=O)[C@H](Cc2ccccc2)NC(=O)[C@H]([C@@H](C)O)NC(=O)[C@H](CCCCN)NC(=O)[C@H](Cc2c[nH]c3ccccc23)NC1=O` [Peptide 12C] ({DOTA}-CFAWKTFC-OH; disulfide 1-8), at hSSTR4, the “selectivity in binding to SSTR4 compared with the other 4 receptors (in words)” value (from here on “selectivity in binding to SSTR4”) was “continues to show selectivity in binding to hSSTR4”.

On to `C[C@@H]1NC(=O)[C@H](Cc2ccccc2)NC(=O)[C@@H](NC(=O)CCCNC(=O)CN2CCN(CC(=O)O)CCN(CC(=O)O)CCN(CC(=O)O)CC2)CSSC[C@@H](C(=O)O)NC(=O)[C@H](Cc2ccccc2)NC(=O)[C@H]([C@@H](C)O)NC(=O)[C@H](CCCCN)NC(=O)[C@H](Cc2c[nH]c3ccccc23)NC1=O` [Peptide 12D] ({DOTA-GABA}-CFAWKTFC-OH; disulfide 1-8), for which the “selectivity in binding to SSTR4” value on hSSTR4 was “continues to show selectivity in binding to hSSTR4”.

`C[C@@H](O)[C@@H]1NC(=O)[C@H](CCCCN)NC(=O)[C@@H](Cc2c[nH]c3ccccc23)NC(=O)[C@H](Cc2ccc(N)cc2)NC(=O)[C@H](Cc2ccccc2)NC(=O)[C@@H](NC(N)=O)CSSC[C@@H](C(=O)O)NC(=O)[C@H](Cc2ccccc2)NC1=O` [Peptide No. 4, (cyclo)Cbm-Cys-Phe-4Aph-D-Trp-Lys-Thr-Phe-Cys-OH] (F[Phe(4-NH2)][dW]KTFC-OH; linker N-7 via X2): on hSSTR4, the IC50 was determined as 1.1 ± 0.2 nM.

For the compound `C[C@@H](O)[C@@H]1NC(=O)[C@H](CCCCN)NC(=O)[C@@H](Cc2c[nH]c3ccccc23)NC(=O)[C@H](Cc2ccc(N)cc2)NC(=O)[C@H](Cc2ccccc2)NC(=O)[C@@H](NC(=O)[C@@H](N)Cc2ccc(O)cc2)CSSC[C@@H](C(=O)O)NC(=O)[C@H](Cc2ccccc2)NC1=O` [Peptide No. 7, (cyclo)H-Tyr-Cys-Phe-4Aph-D-Trp-Lys-Thr-Phe-Cys-OH], the IC50 on hSSTR4 was found to be 1.2 ± 0.3 nM.

Take `C[C@@H](O)[C@@H]1NC(=O)[C@H](CCCCN)NC(=O)[C@H](Cc2c[nH]c3ccccc23)NC(=O)[C@H](Cc2ccc(N)cc2)NC(=O)[C@H](Cc2ccccc2)NC(=O)[C@@H](NC(=O)[C@H](Cc2ccc(O)cc2)NC(N)=O)CSSC[C@@H](C(=O)O)NC(=O)[C@H](Cc2ccccc2)NC1=O` [Peptide No. 8, (cyclo)Cbm-Tyr-Cys-Phe-4Aph-Trp-Lys-Thr-Phe-Cys-OH]: the IC50 on hSSTR4 was ~1.2 nM and 1.2 nM.

As to `C[C@@H](O)[C@@H]1NC(=O)[C@H](CCCCN)NC(=O)[C@H](Cc2c[nH]c3ccccc23)NC(=O)[C@H](Cc2ccc(N)cc2)NC(=O)[C@H](Cc2ccccc2)NC(=O)[C@@H](N)CSSC[C@@H](C(=O)O)NC(=O)[C@H](Cc2ccc(O)cc2)NC1=O` [Peptide No. 9, (cyclo)H-Cys-Phe-4Aph-Trp-Lys-Thr-Tyr-Cys-OH], the IC50 at hSSTR4 was 1.1 ± 0.2 nM.

Turning to `C[C@@H]1NC(=O)[C@H](Cc2ccccc2)NC(=O)[C@@H](N)CSSC[C@@H](C(=O)O)NC(=O)[C@H](Cc2ccccc2)NC(=O)[C@H]([C@@H](C)O)NC(=O)[C@H](CCCCN)NC(=O)[C@@H](Cc2c[nH]c3ccccc23)NC1=O` [Peptide No. 11, (cyclo)H-Cys-Phe-Ala-D-Trp-Lys-Thr-Phe-Cys-OH] (H-CFA[dW]KTFC-OH; disulfide 1-8), at hSSTR4, the “selectivity in binding to SSTR4” value is “selectively binds to SSTR4” and the IC50 came to 0.98 nM.

Turning to `C[C@@H]1NC(=O)[C@H](Cc2ccccc2)NC(=O)[C@@H](N)CSSC[C@@H](C(=O)O)NC(=O)[C@H](C)NC(=O)[C@H]([C@@H](C)O)NC(=O)[C@H](CCCCN)NC(=O)[C@H](Cc2c[nH]c3ccccc23)NC1=O` [Peptide No. 12A] (H-CFAWKTAC-OH; disulfide 1-8), the IC50 at hSSTR4 was 3.5 ± 0.8 nM.

Compound `C[C@@H]1NC(=O)[C@H](Cc2ccccc2)NC(=O)[C@@H](NC(=O)[C@@H](N)Cc2ccc(O)c(I)c2)CSSC[C@@H](C(=O)O)NC(=O)[C@H](Cc2ccccc2)NC(=O)[C@H]([C@@H](C)O)NC(=O)[C@H](CCCCN)NC(=O)[C@H](Cc2c[nH]c3ccccc23)NC1=O` [Peptide No. 13A] yielded an IC50 on hSSTR4 of around 3.5 nM.

Regarding `C[C@@H]1NC(=O)[C@H](Cc2ccccc2)NC(=O)[C@@H](NC(=O)[C@@H](N)Cc2ccc(O)cc2)CSSC[C@@H](C(=O)O)NC(=O)[C@H](Cc2ccccc2)NC(=O)[C@H]([C@@H](C)O)NC(=O)[C@H](CCCCN)NC(=O)[C@@H](Cc2c[nH]c3ccccc23)NC1=O` [Peptide No. 14, (cyclo)H-Tyr-Cys-Phe-Ala-D-Trp-Lys-Thr-Phe-Cys-OH], at hSSTR4, the IC50 amounted to 1.1 ± 0.2 nM.

For the compound `C[C@@H](O)[C@@H]1NC(=O)[C@H](CCCCN)NC(=O)[C@H](Cc2c[nH]c3ccccc23)NC(=O)[C@H](Cc2ccc(CN)cc2)NC(=O)[C@H](Cc2ccccc2)NC(=O)[C@@H](NC(=O)[C@@H](N)Cc2ccc(O)cc2)CSSC[C@@H](C(=O)O)NC(=O)[C@H](Cc2ccccc2)NC1=O` [Peptide No. 15, (cyclo)H-Tyr-Cys-Phe-4 Amp-Trp-Lys-Thr-Phe-Cys-OH], at hSSTR1, the IC50 is above 1000 nM.

Turning to `C[C@@H](O)[C@@H]1NC(=O)[C@H](CCCCN)NC(=O)[C@H](Cc2c[nH]c3ccccc23)NC(=O)[C@H](Cc2ccc(CN)cc2)NC(=O)[C@H](Cc2ccccc2)NC(=O)[C@@H](NC(=O)[C@H](Cc2ccc(O)cc2)NC(N)=O)CSSC[C@@H](C(=O)O)NC(=O)[C@H](Cc2ccccc2)NC1=O` [Peptide No. 15A, (cyclo)Cbm-Tyr-Cys-Phe-Amp-Trp-Lys-Thr-Phe-Cys-OH], the IC50 on hSSTR1 was above 1000 nM.

`C[C@@H](O)[C@@H]1NC(=O)[C@H](CCCCN)NC(=O)[C@@H]([C@@H](C)c2ccc3ccccc3c2)NC(=O)[C@H](Cc2ccc(O)cc2)NC(=O)[C@H](Cc2ccccc2)NC(=O)[C@@H](N)CSSC[C@@H](C(=O)O)NC(=O)[C@H](Cc2ccccc2)NC1=O` [Peptide No. 17, (cyclo)H-Cys-Phe-Tyr-threo-(2R,3S)C^βMe-2Nal-Lys-Thr-Phe-Cys-OH] (H-CFY[d2Nal(3S-Me)]KTFC-OH; disulfide 1-8): on hSSTR4, the “selectivity in binding to SSTR4” value is on record as “show selectivity for binding to SSTR4”.

With “(cyclo)Cys-Phe-Val-Trp-Lys-Thr-Val-Cys-OH (CFVWKTVC-OH; disulfide 1-8 (inferred)) [Peptide No. 12F]”, in the assay with hSSTR4, the “selectivity in binding to SSTR4” value is listed as “selective in binding to hSSTR4”.

“(cyclo)H-Cys-Phe-Ala-Trp-Lys-Thr-Gly-Cys-OH (H-CFAWKTGC-OH; disulfide 1-8 (inferred)) [Peptide 12G]”: the “selectivity in binding to SSTR4” value with hSSTR4 is recorded as “selective in binding to hSSTR4”.

As for “(cyclo)H-Cys-Phe-Ala-Trp-Lys-Thr-Val-Cys-OH (H-CFAWKTVC-OH; disulfide 1-8 (inferred)) [Peptide 12E]”, the “selectivity in binding to SSTR4” value with hSSTR4 is listed as “selective in binding to hSSTR4”.

For the compound “(cyclo)H-Cys-Phe-Val-D-Trp-Lys-Thr-Phe-Cys-OH (H-CFV[dW]KTFC-OH; disulfide 1-8; SMILES CC(C)[C@@H]1NC(=O)[C@H](Cc2ccccc2)NC(=O)[C@@H](N)CSSC[C@@H](C(=O)O)NC(=O)[C@H](Cc2ccccc2)NC(=O)[C@H]([C@@H](C)O)NC(=O)[C@H](CCCCN)NC(=O)[C@@H](Cc2c[nH]c3ccccc23)NC1=O) [Peptide 11A]”, the “selectivity in binding to SSTR4” value with hSSTR4 is “selective in binding to hSSTR4”.

By IC50 is commonly meant the concentration that gives 50% inhibition. The low end stands for greater potency, the high end for weaker potency.
